Counter-ions that a name gives are not always drawn.
Each molecule was assayed against T1, hNET (Homo sapiens, UniProt P23975) (assay: Norepinephrine (NE) uptake assay in MDCK-Net6 cells stably transfected with human hNET). Details: MDCK-Net6, read-out: % Inhibition @ 1 μM (hNET).
T1 construct: expressed in transfected cells
Format: cell-based
Protocol: Cells were plated at 300,000/T75 flask and cells were split twice weekly. […] Cells were plated at 250,000 cells/T75 flask and split twice weekly.
On day 1, cells were plated at 3,000 cells/well in growth medium and maintained in a cell incubator (37° C., 5% CO2). On day 2, growth medium was replaced with 200 μl of assay buffer (25 mM HEPES; 120 mM NaCl; 5 mM KCl; 2.5 mM CaCl2; 1.2 mM MgSO4; 2 mg/ml glucose (pH 7.4, 37° C.)) containing 0.2 mg/ml ascorbic acid and 10 μM pargyline. Plates containing cells with 200 μl of assay buffer were equilibrated for 10 minutes at 37° C. prior to addition of compounds. A stock solution of desipramine was prepared in DMSO (10 mM) and delivered to triplicate wells containing cells for a final test concentration of 1 μM. Data from these wells were used to define non-specific NE uptake (minimum NE uptake). Test compounds were prepared in DMSO (10 mM) and diluted in assay buffer according to test range (1 to 10,000 nM). Twenty-five microliters of assay buffer (maximum NE uptake) or test compound were added directly to triplicate wells containing cells in 200 μl of assay buffer. The cells in assay buffer with test compounds were incubated for 20 minutes at 37° C. To initiate the NE uptake, [^3H]NE diluted in assay buffer (120 nM final assay concentration) was delivered in 25 μl aliquots to each well and the plates were incubated for 5 minutes (37° C.). The reaction was terminated by decanting the supernatant from the plate. The plates containing cells were washed twice with 200 μl assay buffer (37° C.) to remove free radioligand. The plates were then inverted, left to dry for 2 minutes, then reinverted and air-dried for an additional 10 minutes. The cells were lysed in 25 μl of 0.25 N NaOH solution (4° C.), placed on a shake table and vigorously shaken for 5 minutes. After cell lysis, 75 μl of scintillation cocktail was added to each well and the plates were sealed with film tape. The plates were returned to the shake table and vigorously shaken for a minimum of 10 minutes to ensure adequate partitioning of organic and aqueous solutions. The plates were counted in a Wallac Microbeta counter (PerkinElmer) to collect the raw cpm data.
For each experiment, a data stream of cpm values collected from the Wallac Microbeta counter was downloaded to a Microsoft Excel statistical application program. Calculations of EC50 values were made using the transformed-both-sides logistic dose response program written by Wyeth Biometrics Department.

T1 sequence (P23975 whole entry): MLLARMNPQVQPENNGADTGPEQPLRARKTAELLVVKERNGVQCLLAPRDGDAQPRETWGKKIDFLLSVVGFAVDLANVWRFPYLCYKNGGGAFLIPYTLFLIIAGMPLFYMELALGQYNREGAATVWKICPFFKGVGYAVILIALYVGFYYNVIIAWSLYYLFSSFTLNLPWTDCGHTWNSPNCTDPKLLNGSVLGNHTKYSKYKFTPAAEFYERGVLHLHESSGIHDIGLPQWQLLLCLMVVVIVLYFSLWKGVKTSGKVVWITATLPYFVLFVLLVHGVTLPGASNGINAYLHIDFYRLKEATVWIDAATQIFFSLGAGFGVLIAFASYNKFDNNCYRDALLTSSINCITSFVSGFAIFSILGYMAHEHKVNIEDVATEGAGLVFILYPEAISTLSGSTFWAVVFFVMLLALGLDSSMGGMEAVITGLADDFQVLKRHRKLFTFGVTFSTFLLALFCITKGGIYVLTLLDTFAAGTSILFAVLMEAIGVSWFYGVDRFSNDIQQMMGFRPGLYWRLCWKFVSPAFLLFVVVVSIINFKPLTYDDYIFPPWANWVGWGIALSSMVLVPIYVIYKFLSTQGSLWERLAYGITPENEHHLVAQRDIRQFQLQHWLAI

In order of rising inhibition at 1 µM:
1. CCNC[C@@H](O)[C@H](c1ccccc1)n1c(=O)n(C(C)C)c2ccc(F)cc21 [Example 204, 3-[(1S,2R)-3-(ethylamino)-2-hydroxy-1-phenylpropyl]-5-fluoro-1-isopropyl-1,3-dihydro-2H-benzimidazol-2-one hydrochloride]  47.4%
2. CNC[C@H](O)[C@@H](c1ccccc1C)n1ccc2ccccc21 (single isomer, unassigned) [Example 54, hydrochloride]  68.6%
3. CNCC(O)[C@H](c1ccccc1)n1ccc2ccccc21 (stereo in doubt) [Example 23, (1S,2R)-1-(1H-indol-1-yl)-3-(methylamino)-1-phenylpropan-2-ol hydrochloride]  89.7%
4. CNC[C@@H](O)[C@H](c1cccc(F)c1)n1ccc2ccc(Br)cc21 [Example 132, (1S,2R)-1-(6-bromo-1H-indol-1-yl)-1-(3-fluorophenyl)-3-(methylamino)propan-2-ol hydrochloride]  93%
5. CNC[C@@H](O)[C@H](c1cccc(C(F)(F)F)c1)n1ccc2ccccc21 [Example 136, (1S,2R)-1-(1H-indol-1-yl)-3-(methylamino)-1-[3-(trifluoromethyl)phenyl]propan-2-ol hydrochloride]  97%
6. CNC[C@@H](O)[C@H](c1cccc(F)c1)n1ccc2cc(F)ccc21 [Example 85, (1S,2R)-1-(5-fluoro-1H-indol-1-yl)-1-(3-fluorophenyl)-3-(methyl-amino)propan-2-ol hydrochloride]  97.4%
7. CNC[C@@H](O)[C@H](c1cccc(F)c1)n1ccc2c(C)cccc21 [Example 96, ((1S,2R)-1-(3-fluorophenyl)-3-(methylamino)-1-(4-methyl-1H-indol-1-yl)propan-2-ol hydrochloride]  98.2%
8. CNC[C@@H](O)[C@H](c1cccc(F)c1)n1ccc2cccc(Br)c21 [Example 135, (1S,2R)-1-(7-bromo-1H-indol-1-yl)-1-(3-fluorophenyl)-3-(methylamino)propan-2-ol hydrochloride]  99.5%

Same assay, conditions: test compound 1 μM; [3H]NE uptake, MDCK-Net6 cells; read-out: % Inhibition @ 1 μM (hNET)

In order of falling inhibition at 1 µM:
1. CNC[C@@H](O)[C@H](c1ccccc1)N1C(=O)C2(CCCCC2)c2cc(Br)ccc21 [Example 113, 5′-bromo-1′-[(1S,2R)-2-hydroxy-3-(methylamino)-1-phenylpropyl]-spiro[cyclohexane-1,3′-indol]-2′(1′H)-one hydrochloride]  99.7%
2. CNC[C@@H](O)[C@H](c1cccc(F)c1)n1cc(-c2ccccc2C)c2ccccc21 [Example 62, (1S,2R)-1-(3-fluorophenyl)-3-(methylamino)-1-[3-(2-methylphenyl)-1H-indol-1-yl]propan-2-ol]  99.7%
3. CNC[C@@H](O)[C@H](c1cccc(F)c1)n1cc(-c2ccccc2C(F)(F)F)c2ccccc21 [Example 175, (1S,2R)-1-(3-fluorophenyl)-3-(methylamino)-1-{3-[2-(trifluoromethyl)phenyl]-1H-indol-1-yl}propan-2-ol hydrochloride]  99.6%
4. CNC[C@@H](O)[C@H](c1cc(F)cc(F)c1)N1CCc2ccccc21 [Example 158, (1S,2R)-1-(3,5-difluorophenyl)-1-(2,3-dihydro-1H-indol-1-yl)-3-(methylamino)propan-2-ol hydrochloride]  99.6%
5. CNC[C@@H](O)[C@H](c1cccc(F)c1)n1cc(C(C)C)c2ccccc21 [Example 155, (1S,2R)-1-(3-fluorophenyl)-1-(3-isopropyl-1H-indol-1-yl)-3-(methylamino)propan-2-ol hydrochloride]  98.9%
6. CNC[C@@H](O)[C@H](c1cccc(F)c1)n1cc(-c2ccc(C(C)(C)C)cc2)c2ccccc21 [Example 171, (1S,2R)-1-[3-(4-tert-butylphenyl)-1H-indol-1-yl]-1-(3-fluorophenyl)-3-(methylamino)propan-2-ol hydrochloride]  98.3%
7. CNC[C@@H](O)[C@H](c1ccccc1)N1C(=O)C(C)(C)c2cccc(F)c21 [Example 99, 7-fluoro-1-[(1S,2R)-2-hydroxy-3-(methylamino)-1-phenylpropyl]-3,3-dimethyl-1,3-dihydro-2H-indol-2-one hydrochloride]  98.1%
8. CNC[C@@H](O)[C@H](c1ccccc1)n1ccc2cccc(Cl)c21 [Example 148, (1S,2R)-1-(7-chloro-1H-indol-1-yl)-3-(methylamino)-1-phenylpropan-2-ol hydrochloride]  97.8%
9. CNC[C@@H](O)[C@H](c1ccccc1)n1ccc2c(Cl)cccc21 [Example 146, (1S,2R)-1-(4-chloro-1H-indol-1-yl)-3-(methylamino)-1-phenylpropan-2-ol hydrochloride]  97.1%
10. CNC[C@@H](O)[C@H](c1ccccc1)n1cc(C)c2cc(F)ccc21 [Example 117, (1S,2R)-1-(5-fluoro-3-methyl-1H-indol-1-yl)-3-(methylamino)-1-phenylpropan-2-ol hydrochloride]  95.3%
11. CNC[C@@H](O)[C@H](c1ccccc1)n1ccc2c(C)cccc21 [Example 94, (1S,2R)-3-(methylamino)-1-(4-methyl-1H-indol-1-yl)-1-phenylpropan-2-ol hydrochloride]  94.9%
12. CNC[C@@H](O)[C@H](c1cccc(OC(F)(F)F)c1)n1ccc2ccccc21 [Example 35, (1S,2R)-1-(1H-indol-1-yl)-3-(methylamino)-1-[3-(trifluoromethoxy)phenyl]propan-2-ol hydrochloride]  94.3%
13. CNC[C@@H](O)[C@H](c1ccccc1)N1C(=O)C(C)(C)c2ccccc21 [Example 100, 1-[(1S,2R)-2-hydroxy-3-(methylamino)-1-phenylpropyl]-3,3-dimethyl-1,3-dihydro-2H-indol-2-one hydrochloride]  94.2%
14. CNC[C@@H](O)[C@H](c1ccccc1)N1C(=O)C(C)(C)c2cc(Br)ccc21 [Example 194, 5-bromo-1-[(1S,2R)-2-hydroxy-3-(methylamino)-1-phenylpropyl]-3,3-dimethyl-1,3-dihydro-2H-indol-2-one hydrochloride]  79%
15. CNC[C@@H](O)[C@H](c1ccc(OC)cc1)n1ccc2ccccc21 (racemic) [Example 70, (1SR,2RS)-1-(1H-indol-1-yl)-1-(4-methoxyphenyl)-3-(methylamino)propan-2-ol hydrochloride]  77.7%
16. CNC[C@@H](O)[C@H](c1ccccc1)n1ccc2ccc(Br)cc21 [Example 129, (1S,2R)-1-(6-bromo-1H-indol-1-yl)-3-(methylamino)-1-phenylpropan-2-ol hydrochloride]  71.8%
17. CNC[C@@H](O)[C@H](c1ccccc1)n1ccc2cc(C(F)(F)F)ccc21 [Example 188, (1S,2R)-3-(methylamino)-1-phenyl-1-[5-(trifluoromethyl)-1H-indol-1-yl]propan-2-ol hydrochloride]  71.6%
18. CNC[C@@H](O)[C@](C)(c1ccccc1)n1ccc2ccccc21 [Example 191, (2R,3S)-3-(1H-indol-1-yl)-1-(methylamino)-3-phenylbutan-2-ol hydrochloride]  63.9%
19. O[C@@H](CNCC1CCCCC1)[C@@H](c1ccccc1)n1ccc2ccccc21 (racemic) [Example 8, (1RS,2SR)-3-[(cyclohexylmethyl)amino]-1-(1H-indol-1-yl)-1-phenylpropan-2-ol hydrochloride]  53.4%
20. CNC[C@@H](O)[C@H](c1ccccc1)n1ccc2c(C#N)cccc21 [Example 128, 1-[(1S,2R)-2-hydroxy-3-(methylamino)-1-phenylpropyl]-1H-indole-4-carbonitrile hydrochloride]  45.6%
21. O[C@@H](CN1CCOCC1)[C@@H](c1ccccc1)n1ccc2ccccc21 (racemic) [Example 3, (1RS,2SR)-1-(1H-indol-1-yl)-3-morpholin-4-yl-1-phenylpropan-2-ol hydrochloride]  17.6%
22. CCNC[C@H](O)[C@@H](c1ccccc1)n1ccc2cc(F)ccc21 (racemic) [Example 18, (1RS,2SR)-3-(ethylamino)-1-(5-fluoro-1H-indol-1-yl)-1-phenylpropan-2-ol hydrochloride]  11.3%
23. CN1CCN(C[C@H](O)[C@@H](c2ccccc2)n2ccc3ccccc32)CC1 [Example 1, 1RS,2SR)-1-(1H-indol-1-yl)-3-(4-methylpiperazin-1-yl)-1-phenyl propan-2-ol dihydrochloride]  4.6%
